Assay results as given in US20170157012A1, “A Use of Isosorbide Monooleate” (BASF SE, priority 2014, published 2017).

Key:
[1] = In-vitro deposition on skin substitute after rinse-off (GC of extract); conditions: for In-vitro deposition of Isosorbide monooleate on the skin substitute per area: after rinse with water
Experimental: (§1) For measuring the deposition of isosorbide monooleate on a substrate a formulation containing isosorbide monooleate was applied to this substrate. Then, the treated area was rinsed with a defined amount of water and extracted with an organic solvent in order to determine the amount of isosorbide monooleate that remained on the surface after the rinse cycle. The extract was analyzed by gas chromatography (GC) and the amount of isosorbide monooleate deposited on the surface was calculated. The measurements were carried out as described in the experimental section of WO 2013/007473.
(§2) As substrate the human skin (forearm) of probands (in-vivo deposition) as well as a skin substitute (collagen layer) (in-vitro deposition) was used. The rinse-cycle (dilution with water) imitated the process of having a shower.
(§3) The following formulations were used for the deposition measurements (in-vitro as well as in-vivo).

[2] = In-vivo deposition on human skin after rinse-off (GC of extract)
Experimental: as §1, §2, §3

Substance: isosorbide monooleate
- In-vitro deposition of Isosorbide monooleate on the skin substitute per area ([1]; 0.5 % by weight isosorbide monooleate in the formulation): 3.7 μg/cm^2
- In-vitro deposition of Isosorbide monooleate on the skin substitute per area ([1]; 1 % by weight isosorbide monooleate in the formulation): 7.3 μg/cm^2
- In-vitro deposition of Isosorbide monooleate on the skin substitute per area ([1]; 1.5 % by weight isosorbide monooleate in the formulation): 8.6 μg/cm^2
- In-vitro deposition of Isosorbide monooleate on the skin substitute per area ([1]; 2 % by weight isosorbide monooleate in the formulation): 15.8 μg/cm^2
- Concentration dependency of deposition on the skin/skin substitute ([1]; formulations with 0.5 to 2 % by weight isosorbide monooleate): The higher the amount of isosorbide monooleate in the formulation the higher the deposition rate
- In-vivo Deposition of isosorbide monooleate on the skin per area ([2]; 1 % by weight isosorbide monooleate in the formulation, human forearm skin, after rinse-off): 0.7 μg/cm^2
- Remaining on the skin after rinse-off (in words) ([2]; formulation with 1% by weight isosorbide monooleate): remained in small amounts on the skin after rinse-off
